For one assay, the target named is T1, HiBiT-BRM (Homo sapiens, UniProt P51531).
T1 construct: expressed in transfected cells
The assay is described as follows: HiBiT-BRM cell-based degradation assay (Nano-Glo HiBiT Lytic Detection). As to conditions: HeLa cells expressing HiBiT-BRM, 24 h; for DC50: read-out: BRM HiBit Degradation IC50. The essentials: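 HeLa cells stably expressing HiBiT-tagged BRM were treated for 24 h, then lysed with LgBiT-containing Nano-Glo reagent and luminescence read. % degradation scaled between DMSO (high control) and 2 μM reference BRM/BRG1 degrader (low control).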

The target of the next assay is T2, HiBit-BRG1 (Homo sapiens, UniProt P51532).
T2 construct: expressed in transfected cells
Kind of assay: HiBit-BRG1 cell-based degradation assay (Nano-Glo HiBiT Lytic Detection). As to conditions: HeLa cells expressing HiBit-BRG1 and LgBit, 24 h; for DC50: read-out: BRG1 HiBit Degradation IC50; for Dmax: read-out: BRG1 HiBit Degradation Maximum (%). The procedure, abridged: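 Percent degradation derived from lytic HiBiT signal, normalized to DMSO-treated cells and to cells given 2 μM of a known BRM/BRG1 degrader. The HeLa line stably expressed HiBit-BRG1 and LgBit; treatment lasted 24 h at 5000 cells per well.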

13 compounds from patent publication US20230150974A1 (Foghorn Therapeutics Inc., priority 2020, published 2023) can be followed below.

T1 sequence (P51531 whole entry): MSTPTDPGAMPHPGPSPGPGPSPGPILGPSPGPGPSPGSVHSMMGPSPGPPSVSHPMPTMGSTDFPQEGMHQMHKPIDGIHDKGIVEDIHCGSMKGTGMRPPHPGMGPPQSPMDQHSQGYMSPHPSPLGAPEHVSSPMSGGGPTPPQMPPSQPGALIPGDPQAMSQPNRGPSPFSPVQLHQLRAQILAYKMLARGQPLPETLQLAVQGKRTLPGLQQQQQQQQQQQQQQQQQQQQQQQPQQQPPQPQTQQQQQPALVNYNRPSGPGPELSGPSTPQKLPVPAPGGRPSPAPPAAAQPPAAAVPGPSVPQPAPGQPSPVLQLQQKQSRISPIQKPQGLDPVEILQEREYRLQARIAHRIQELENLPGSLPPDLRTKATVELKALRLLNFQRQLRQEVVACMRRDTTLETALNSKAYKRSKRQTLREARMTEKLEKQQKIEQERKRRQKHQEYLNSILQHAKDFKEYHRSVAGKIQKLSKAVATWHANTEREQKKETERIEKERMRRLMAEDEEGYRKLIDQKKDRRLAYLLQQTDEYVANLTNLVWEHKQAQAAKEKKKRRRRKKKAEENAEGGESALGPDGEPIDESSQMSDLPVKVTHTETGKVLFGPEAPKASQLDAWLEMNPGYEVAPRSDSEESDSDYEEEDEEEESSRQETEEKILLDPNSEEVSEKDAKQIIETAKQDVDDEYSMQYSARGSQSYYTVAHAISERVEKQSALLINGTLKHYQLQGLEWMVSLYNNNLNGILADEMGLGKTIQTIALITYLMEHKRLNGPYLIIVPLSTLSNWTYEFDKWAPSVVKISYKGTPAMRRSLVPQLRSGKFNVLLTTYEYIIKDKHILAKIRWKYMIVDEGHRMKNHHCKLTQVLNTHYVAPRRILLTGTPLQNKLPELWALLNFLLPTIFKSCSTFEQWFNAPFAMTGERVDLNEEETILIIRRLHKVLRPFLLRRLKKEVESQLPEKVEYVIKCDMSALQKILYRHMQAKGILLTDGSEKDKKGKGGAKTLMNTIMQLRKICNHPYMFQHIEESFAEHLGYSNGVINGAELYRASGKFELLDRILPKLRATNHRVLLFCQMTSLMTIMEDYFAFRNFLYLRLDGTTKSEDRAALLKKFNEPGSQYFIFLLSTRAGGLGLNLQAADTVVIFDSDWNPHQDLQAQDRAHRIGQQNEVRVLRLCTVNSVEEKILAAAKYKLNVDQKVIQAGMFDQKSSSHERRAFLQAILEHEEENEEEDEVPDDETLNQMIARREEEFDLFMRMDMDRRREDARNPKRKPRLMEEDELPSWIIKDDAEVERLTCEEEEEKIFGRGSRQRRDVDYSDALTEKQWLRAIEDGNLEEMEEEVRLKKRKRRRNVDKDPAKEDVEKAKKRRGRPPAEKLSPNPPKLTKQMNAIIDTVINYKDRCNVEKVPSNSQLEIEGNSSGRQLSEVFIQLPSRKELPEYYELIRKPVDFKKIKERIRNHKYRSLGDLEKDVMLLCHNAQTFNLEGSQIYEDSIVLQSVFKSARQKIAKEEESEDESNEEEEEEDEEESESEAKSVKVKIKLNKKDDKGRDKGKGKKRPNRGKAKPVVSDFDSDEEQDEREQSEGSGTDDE
T2 sequence (P51532 whole entry): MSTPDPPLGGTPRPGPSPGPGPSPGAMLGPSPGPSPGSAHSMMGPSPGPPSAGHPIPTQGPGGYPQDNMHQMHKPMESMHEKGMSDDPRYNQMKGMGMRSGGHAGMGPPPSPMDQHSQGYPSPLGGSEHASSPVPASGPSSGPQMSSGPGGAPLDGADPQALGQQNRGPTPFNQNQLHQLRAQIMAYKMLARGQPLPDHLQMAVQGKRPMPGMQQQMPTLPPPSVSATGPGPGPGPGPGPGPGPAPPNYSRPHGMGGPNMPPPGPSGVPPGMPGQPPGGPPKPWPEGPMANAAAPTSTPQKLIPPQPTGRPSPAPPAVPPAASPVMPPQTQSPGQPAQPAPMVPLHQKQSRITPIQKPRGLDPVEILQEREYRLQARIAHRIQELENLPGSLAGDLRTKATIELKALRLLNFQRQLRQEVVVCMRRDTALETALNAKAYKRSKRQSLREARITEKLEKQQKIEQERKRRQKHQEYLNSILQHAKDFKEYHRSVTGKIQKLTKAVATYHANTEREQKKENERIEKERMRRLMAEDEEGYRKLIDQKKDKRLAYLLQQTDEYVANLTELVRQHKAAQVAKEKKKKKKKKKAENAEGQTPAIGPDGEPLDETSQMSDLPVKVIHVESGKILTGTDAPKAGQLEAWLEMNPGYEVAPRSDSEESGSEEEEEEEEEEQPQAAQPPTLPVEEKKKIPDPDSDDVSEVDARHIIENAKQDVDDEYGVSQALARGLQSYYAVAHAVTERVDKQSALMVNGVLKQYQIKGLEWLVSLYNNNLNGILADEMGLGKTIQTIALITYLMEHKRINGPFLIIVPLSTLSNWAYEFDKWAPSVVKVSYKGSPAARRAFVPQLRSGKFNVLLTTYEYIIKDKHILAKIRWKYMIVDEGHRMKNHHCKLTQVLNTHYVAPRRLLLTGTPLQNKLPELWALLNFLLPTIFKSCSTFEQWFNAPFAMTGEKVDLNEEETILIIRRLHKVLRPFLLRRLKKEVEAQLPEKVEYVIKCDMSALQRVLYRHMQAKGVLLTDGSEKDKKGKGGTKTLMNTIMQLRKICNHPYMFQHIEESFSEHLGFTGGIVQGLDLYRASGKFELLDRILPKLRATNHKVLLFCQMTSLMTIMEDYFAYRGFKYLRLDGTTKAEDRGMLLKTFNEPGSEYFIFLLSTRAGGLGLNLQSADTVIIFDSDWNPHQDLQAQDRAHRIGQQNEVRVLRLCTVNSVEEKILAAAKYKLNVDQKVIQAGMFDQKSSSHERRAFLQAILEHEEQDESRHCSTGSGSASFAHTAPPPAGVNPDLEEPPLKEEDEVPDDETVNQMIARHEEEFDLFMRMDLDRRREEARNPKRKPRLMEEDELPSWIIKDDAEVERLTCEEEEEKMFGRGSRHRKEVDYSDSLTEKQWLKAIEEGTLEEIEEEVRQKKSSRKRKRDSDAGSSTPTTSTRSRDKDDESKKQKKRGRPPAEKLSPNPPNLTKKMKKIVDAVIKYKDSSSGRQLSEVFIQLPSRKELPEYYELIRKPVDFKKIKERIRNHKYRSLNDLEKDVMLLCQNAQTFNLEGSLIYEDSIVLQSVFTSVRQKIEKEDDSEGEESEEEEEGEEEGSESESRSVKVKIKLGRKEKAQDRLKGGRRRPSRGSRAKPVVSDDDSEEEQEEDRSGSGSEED

As for `Cc1ncsc1-c1ccc([C@H](C)NC(=O)[C@@H]2C[C@@H](O)CN2C(=O)[C@@H](NC(=O)CCCCCCCCCCCCCCC(=O)NCc2ccc(CCOc3cc(-c4ccccc4O)nnc3N)cc2)C(C)(C)C)cc1` [Compound 214, N1-(4-(2-((3-amino-6-(2-hydroxyphenyl)pyridazin-4-yl)oxy)ethyl)benzyl)-N16-((S)-1-((2S,4R)-4-hydroxy-2-(((S)-1-(4-(4-methylthiazol-5-yl)phenyl)ethyl)carbamoyl)pyrrolidin-1-yl)-3,3-dimethyl-1-oxobutan-2-yl)hexadecanediamide], at HiBiT-BRM, the “BRM HiBit Degradation Maximum (%)” value was “A (“A” indicates maximum degradation ≥75%)” and the DC50 was above 10 nM. Also, on HiBit-BRG1, the DC50 was above 1000 nM and the Dmax was below 50%.

For the compound `Nc1nnc(-c2ccccc2O)cc1OCCc1ccc(C(=O)N2CCC(C3CCN(C(=O)COc4cccc5c4C(=O)N(C4CCC(=O)NC4=O)C5=O)CC3)CC2)cc1` (stereo not drawn) [Compound 49, 4-(2-(1′-(4-(2-((3-amino-6-(2-hydroxyphenyl)pyridazin-4-yl)oxy)ethyl)benzoyl)-[4,4′-bipiperidin]-1-yl)-2-oxoethoxy)-2-(2,6-dioxopiperidin-3-yl)isoindoline-1,3-dione], at HiBiT-BRM, the “BRM HiBit Degradation Maximum (%)” value is recorded as “C (“C” indicates maximum degradation <50%)” and the DC50 was above 1000 nM. Moreover, at HiBit-BRG1, the DC50 was above 1000 nM and the Dmax is below 50%.

Consider `Cc1ncsc1-c1ccc(CNC(=O)[C@@H]2C[C@@H](O)CN2C(=O)[C@@H](NC(=O)CCN2CC(OC3CCN(C(=O)c4ccc(CCOc5cc(-c6ccccc6O)nnc5N)cc4)CC3)C2)C(C)(C)C)cc1` [Compound 238, (2S,4R)-1-((S)-2-(3-(3-((1-(4-(2-((3-amino-6-(2-hydroxyphenyl)pyridazin-4-yl)oxy)ethyl)benzoyl)piperidin-4-yl)oxy)azetidin-1-yl)propanamido)-3,3-dimethylbutanoyl)-4-hydroxy-N-(4-(4-methylthiazol-5-yl)benzyl)pyrrolidine-2-carboxamide], for which, at HiBiT-BRM, the “BRM HiBit Degradation Maximum (%)” value is “C (“C” indicates maximum degradation <50%)” and the DC50 was above 1000 nM. Besides, at HiBit-BRG1, the DC50 is above 1000 nM and the Dmax was below 50%.

For `CN(CCNC(=O)c1ccc(CCOc2cc(-c3ccccc3O)nnc2N)cc1)CCNc1cccc2c1C(=O)N(C1CCC(=O)NC1=O)C2=O` (stereo not drawn) [Compound 61, 4-(2-[[3-amino-6-(2-hydroxyphenyl)pyridazin-4-yl]oxy]ethyl)-N-[2-[(2-[[2-(2,6-dioxopiperidin-3-yl)-1,3-dioxoisoindol-4-yl]amino]ethyl)(methyl)amino]ethyl]benzamide], at HiBiT-BRM, the “BRM HiBit Degradation Maximum (%)” value is given as “B (“B” indicates maximum degradation ≥50%)” and the DC50 was above 100 nM. Further, at HiBit-BRG1, the DC50 is above 1000 nM and the Dmax is below 50%.

Consider `Cc1ncsc1-c1ccc([C@H](C)NC(=O)[C@@H]2C[C@@H](O)CN2C(=O)[C@@H](c2cc(OCCN3CCC4(CC3)CC(C(=O)NCc3ccc(CCOc5cc(-c6ccccc6O)nnc5N)cc3)C4)no2)C(C)C)cc1` [Compound 195, N-(4-(2-((3-amino-6-(2-hydroxyphenyl)pyridazin-4-yl)oxy)ethyl)benzyl)-7-(2-((5-((R)-1-((2S,4R)-4-hydroxy-2-(((S)-1-(4-(4-methylthiazol-5-yl)phenyl)ethyl)carbamoyl)pyrrolidin-1-yl)-3-methyl-1-oxobutan-2-yl)isoxazol-3-yl)oxy)ethyl)-7-azaspiro[3.5]nonane-2-carboxamide], for which, at HiBiT-BRM, the “BRM HiBit Degradation Maximum (%)” value is “A (“A” indicates maximum degradation ≥75%)” and the DC50 was above 10 nM. On HiBit-BRG1, the DC50 is above 100 nM and the Dmax is above 75%.

In the case of `Cc1ncsc1-c1ccc([C@H](C)NC(=O)[C@@H]2C[C@@H](O)CN2C(=O)[C@@H](NC(=O)CN2CCC3(CCN(CCC(=O)NCc4ccc(CCOc5cc(-c6ccccc6O)nnc5N)cc4)CC3)CC2)C(C)(C)C)cc1` [Compound 267, (2S,4R)-1-((S)-2-(2-(9-(3-((4-(2-((3-amino-6-(2-hydroxyphenyl)pyridazin-4-yl)oxy)ethyl)benzyl)amino)-3-oxopropyl)-3,9-diazaspiro[5.5]undecan-3-yl)acetamido)-3,3-dimethylbutanoyl)-4-hydroxy-N-((S)-1-(4-(4-methylthiazol-5-yl)phenyl)ethyl)pyrrolidine-2-carboxamide], at HiBiT-BRM, the “BRM HiBit Degradation Maximum (%)” value is “A (“A” indicates maximum degradation ≥75%)” and the DC50 was above 1000 nM. Further, on HiBit-BRG1, the DC50 is above 1000 nM and the Dmax is below 50%.

For the compound `Nc1nnc(-c2ccccc2O)cc1N1CCN(C(=O)C2CC2CNC(=O)COc2cccc3c2C(=O)N(C2CCC(=O)NC2=O)C3=O)CC1` (stereo not drawn) [Compound 77, N-[(2-[4-[3-amino-6-(2-hydroxyphenyl)pyridazin-4-yl]piperazine-1-carbonyl]cyclopropyl)methyl]-2-[[2-(2,6-dioxopiperidin-3-yl)-1,3-dioxoisoindol-4-yl]oxy]acetamide], at HiBiT-BRM, the “BRM HiBit Degradation Maximum (%)” value was “C (“C” indicates maximum degradation <50%)” and the DC50 is above 1000 nM. Also, at HiBit-BRG1, the DC50 was above 1000 nM.

In the case of `Cc1ncsc1-c1ccc([C@H](C)NC(=O)[C@@H]2C[C@@H](O)CN2C(=O)[C@@H](c2cc(OCCNCc3ccc(CCOc4cc(-c5ccccc5O)nnc4N)cc3)no2)C(C)C)cc1` [Compound 205, (2S,4R)-1-[(2R)-2-[3-[2-([[4-(2-[[3-amino-6-(2-hydroxyphenyl)pyridazin-4-yl]oxy]ethyl)phenyl]methyl]amino)ethoxy]-1,2-oxazol-5-yl]-3-methylbutanoyl]-4-hydroxy-N-[(1S)-1-[4-(4-methyl-1,3-thiazol-5-yl)phenyl]ethyl]pyrrolidine-2-carboxamide], on HiBiT-BRM, the “BRM HiBit Degradation Maximum (%)” value was “A (“A” indicates maximum degradation ≥75%)” and the DC50 was below 10 nM. Moreover, on HiBit-BRG1, the DC50 is above 100 nM and the Dmax is above 75%.

For the compound `Cc1ncsc1-c1ccc(CNC(=O)[C@@H]2C[C@@H](O)CN2C(=O)[C@@H](NC(=O)CCNCc2ccc(CCOc3cc(-c4ccccc4O)nnc3N)cc2)C(C)(C)C)cc1` [Compound 187, (2S,4R)-1-((S)-2-(3-((4-(2-((3-amino-6-(2-hydroxyphenyl)pyridazin-4-yl)oxy)ethyl)benzyl)amino)propanamido)-3,3-dimethylbutanoyl)-4-hydroxy-N-(4-(4-methylthiazol-5-yl)benzyl)pyrrolidine-2-carboxamide], on HiBiT-BRM, the “BRM HiBit Degradation Maximum (%)” value was “C (“C” indicates maximum degradation <50%)” and the DC50 was above 1000 nM. In addition, on HiBit-BRG1, the DC50 was above 1000 nM and the Dmax was below 50%.

In the case of `Nc1nnc(-c2ccccc2O)cc1OCCc1ccc(C(=O)NCCCCCCNc2ccc3c(c2)C(=O)N(C2CCC(=O)NC2=O)C3=O)cc1` (stereo not drawn) [Compound 46, 4-(2-[[3-amino-6-(2-hydroxyphenyl)pyridazin-4-yl]oxy]ethyl)-N-(6-[[2-(2,6-dioxopiperidin-3-yl)-1,3-dioxoisoindol-5-yl]amino]hexyl)benzamide], on HiBiT-BRM, the “BRM HiBit Degradation Maximum (%)” value is given as “C (“C” indicates maximum degradation <50%)” and the DC50 is above 1000 nM. For the same compound, on HiBit-BRG1, the DC50 was above 1000 nM and the Dmax is below 50%.

Regarding `Nc1nnc(-c2ccccc2O)cc1N1CCN(CCNC(=O)CCCCCCCCCNc2cccc3c2C(=O)N(C2CCC(=O)NC2=O)C3=O)CC1` (stereo not drawn) [Compound 98, N-(2-[4-[3-amino-6-(2-hydroxyphenyl)pyridazin-4-yl]piperazin-1-yl]ethyl)-10-[[2-(2,6-dioxopiperidin-3-yl)-1,3-dioxo-2,3-dihydro-1H-isoindol-4-yl]amino]decanamide], on HiBiT-BRM, the “BRM HiBit Degradation Maximum (%)” value was “C (“C” indicates maximum degradation <50%)” and the DC50 was above 1000 nM. For the same compound, at HiBit-BRG1, the DC50 is above 1000 nM and the Dmax is below 50%.

For the compound `Cc1ncsc1-c1ccc(CNC(=O)[C@@H]2C[C@@H](O)CN2C(=O)[C@@H](NC(=O)CCN2CC(CC(=O)NCc3ccc(CCOc4cc(-c5ccccc5O)nnc4N)cc3)C2)C(C)(C)C)cc1` [Compound 183, (2S,4R)-1-[(2S)-2-(3-[3-[([[4-(2-[[3-amino-6-(2-hydroxyphenyl)pyridazin-4-yl]oxy]ethyl)phenyl]methyl]carbamoyl)methyl]azetidin-1-yl]propanamido)-3,3-dimethylbutanoyl]-4-hydroxy-N-[[4-(4-methyl-1,3-thiazol-5-yl)phenyl]methyl]pyrrolidine-2-carboxamide], at HiBiT-BRM, the “BRM HiBit Degradation Maximum (%)” value was “C (“C” indicates maximum degradation <50%)” and the DC50 is above 1000 nM. At HiBit-BRG1, the DC50 is above 1000 nM and the Dmax is below 50%.

Regarding `Cc1ncsc1-c1ccc(CNC(=O)[C@@H]2C[C@@H](O)CN2C(=O)[C@@H](NC(=O)CCN2C[C@H]3CC[C@@H](C2)N3C(=O)c2ccc(CCOc3cc(-c4ccccc4O)nnc3N)cc2)C(C)(C)C)cc1` [Compound 226, (2S,4R)-1-((2S)-2-(3-(8-(4-(2-((3-amino-6-(2-hydroxyphenyl)pyridazin-4-yl)oxy)ethyl)benzoyl)-3,8-diazabicyclo[3.2.1]octan-3-yl)propanamido)-3,3-dimethylbutanoyl)-4-hydroxy-N-(4-(4-methylthiazol-5-yl)benzyl)pyrrolidine-2-carboxamide], on HiBiT-BRM, the “BRM HiBit Degradation Maximum (%)” value is given as “B (“B” indicates maximum degradation ≥50%)” and the DC50 is above 1000 nM. For the same compound, at HiBit-BRG1, the DC50 was above 1000 nM and the Dmax was below 50%.
